Results as given in US20240247253A1, “PRODUCTION METHOD OF POLYPEPTIDE, TAG, EXPRESSION VECTOR, EVALUATION METHOD OF POLYPEPTIDE, PRODUCTION METHOD OF NUCLEIC ACID DISPLAY LIBRARY, AND SCREENING METHOD” (FUJIFILM Corporation, priority 2021, published 2024).

System: cell-free peptide synthesis system derived from Escherichia coli
Assay: Cell-free biosynthesis of DHFR partial sequence-HiBiT fusion proteins with tag, 10 minutes, Nano Glo HiBiT quantification
Type: biochemical
From the text: Regarding the effect of increasing the biosynthesis amount of the polypeptide by the tag (VKKTKT tag) represented by SEQ ID NO: 27, the influence of the length of the polypeptide to be synthesized was examined. The polypeptide to be biosynthesized is a fusion protein containing a partial sequence of dihydrofolate reductase (DHFR) and a luminescent (HiBiT) tag.
A fusion protein in which a partial sequence of DHFR and a HiBiT tag were linked in this order was designed. Gly-Gly-Ser was inserted as a spacer between the partial sequence of DHFR and the HiBiT tag. The amino acid sequences of these fusion proteins are set forth in SEQ ID NOs: 113 and 114, and these fusion proteins are a fusion protein (80 amino acid length) of the amino acids ranging to the amino acid at position 66 from the N-terminal of DHFR with a HiBiT tag and a fusion protein (100 amino acid length) of the amino acids ranging to the amino acid at position 86 from the N-terminal of DHFR with a HiBiT tag. The base sequences encoding these fusion proteins are SEQ ID NOs: 115 and 116.
A base sequence encoding a tagged fusion protein in which methionine, a VKKTKT tag (SEQ ID NO: 27) or a SKIK tag (SEQ ID NO: 107), and a fusion protein (any of SEQ ID NO: 113 or 114) were linked in this order was designed. In this base sequence, a base sequence (SEQ ID NO: 73 or 110) encoding a VKKTKT tag or a SKIK tag is arranged immediately after the start codon ATG, and a base sequence (any of SEQ ID NO: 115 or 116) encoding a fusion protein is arranged immediately after the base sequence encoding the VKKTKT tag or the SKIK tag.
As a control example for evaluating the effect of the VKKTKT tag or the SKIK tag, a base sequence in which a base sequence (any of SEQ ID NO: 115 or 116) encoding each of fusion protein arranged immediately after the start codon ATG was designed.
The fusion protein was expressed using a cell-free peptide synthesis system similar to the cell-free peptide synthesis system used in Example 1 by setting the incubation time of biosynthesis to 10 minutes. The obtained fusion protein was quantified using Nano Glo HiBiT Lytic Detection System (Promega, N3040). The measurement was performed twice, and the average value of the amounts of the fusion protein was calculated. […] The control example of the reference value 1 has a form in which the base sequence (SEQ ID NO: 115 or 116) encoding the fusion protein is arranged immediately after the start codon ATG.

[1] = fusion protein SEQ ID NO 113, amino acid length 80, control without tag = 1
[2] = fusion protein SEQ ID NO 114, amino acid length 100, control without tag = 1

Substance	Biosynthesis amount of fusion protein [1]	Biosynthesis amount of fusion protein [2]
SEQ ID NO: 107: tag consisting of an amino acid sequence of SKIK, disclosed in WO2016/204198A; comparative control (SKIK Tag) [reference compound]	1.13	0.73
SEQ ID NO: 27: VKKX tag, amino acid sequence VKKTKT (VKKX Tag)	1.67	1.24
